These results are taken from patent US6875762B2, “Tetracyclic azepinoindole compounds” (Pfizer, priority 1999, dated 2005).

Counter-ions that a name gives are not always drawn.

T1 sequence (P28335 33-458): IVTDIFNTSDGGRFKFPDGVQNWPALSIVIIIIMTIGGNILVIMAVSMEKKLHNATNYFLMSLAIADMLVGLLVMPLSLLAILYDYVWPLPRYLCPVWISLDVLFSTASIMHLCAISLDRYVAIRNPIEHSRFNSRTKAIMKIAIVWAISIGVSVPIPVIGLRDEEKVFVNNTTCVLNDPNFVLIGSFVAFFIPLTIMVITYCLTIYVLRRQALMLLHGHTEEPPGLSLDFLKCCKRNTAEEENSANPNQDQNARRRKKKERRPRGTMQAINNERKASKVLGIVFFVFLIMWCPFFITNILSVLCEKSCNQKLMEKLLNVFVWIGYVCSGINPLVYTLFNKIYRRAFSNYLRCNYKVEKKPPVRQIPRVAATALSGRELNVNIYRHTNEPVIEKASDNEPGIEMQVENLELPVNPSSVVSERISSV

One assay addresses T1, Human 5-HT2C receptor (Homo sapiens, UniProt P28335).
T1 construct: expressed in transfected cells; host or cells: HEK293 (HEK293-h5-HT2C-5 cell line), membranes
Nature of the assay: Test A: scintillation proximity radioligand binding assay with [3H]serotonin. Conditions: Receptor binding 5HT2c Ki (nM), membranes of HEK293-h5-HT2C-5 cells; [3H]serotonin final 4 nM; IC50 converted by Cheng-Prusoff, Kd 7 nM. On the procedure:
The gene was inserted into expression vectors containing resistance genes as selectable markers. […] The receptor was used under license from D. J. Julius at Columbia University.
The HEK293-h5-HT2C-5 cell line was seeded from frozen stocks into DMEM high glucose salts medium supplemented with sodium pyruvate, Penicillin/Streptomycin solution, G418 (0.25 g/L), hygromycin B ([…]), and Fetal Bovine Serum (3%). […] At approximately 90% confluency, the cells were rinsed with ice-cold PBS and scraped from the NUNC plates using 3M squeegees. The cells were broken with a VirTishear homogenizer. The remaining particulate matter was removed by low-speed centrifugation. Finally, the membranes were concentrated by high-speed centrifugation and resuspended in binding buffer, 50 mM TRIS, 5 mM MgCl2, pH 7.4. The preparation was held in a water-ice slurry while a pilot binding assay was performed (1.5 hours), and then quick-frozen in aliquots appropriate for 1 tube for each 96-well assay plate.
Assays were performed in Wallac microtitre PET plates designed for the Wallac microBeta LSC. Binding reactions contained test compound (11 μl), [^3H]serotonin (124 Ci/mmol, 11 μl for final 4 nM) and bead-membrane mixture (178 μl). The test compound was replaced by water to determine total binding, or by mianserin (5 μM) to define non-specific binding.
The bead-membrane mixture was made by adding 100 mg Wheatgerm Agglutinin SPA beads (Amersham) and membrane preparation (2-5 mg protein) in a total of 8 ml binding buffer for each 96-well assay plate. The mixture was stirred gently for 30 minutes at room temperature, followed by centrifugation (1000 RPM, Beckman Accuspin FR) for 10 minutes. The supernatant, containing excess membrane, was aspirated, and the beads resuspended in 18.5 ml binding buffer for each assay plate. The washed bead-membrane mix was then poured into a reagent reservoir. The mixture was pipetted into the assay plate with a multi-channel pipetter, maintaining constant stirring during pipetting.
After the reactions were complete, the plates were sealed with plastic tape and placed on a gyrotory shaker (150 rpm) for 5 minutes. After shaking, room temperature incubation continued for 2 hours. Finally, the plates were loaded into counting cassettes and counted with the Wallac microBeta LSC.
Eleven half-log serial dilutions of test compounds were made in water using the PE/Cetus Pro/Pette pipetter. These dilutions were distributed to assay plates using the same instrument, followed by radioligand and the bead-membrane mixture prepared as described above. The specifically bound cpm obtained were fit to a one-site binding model using GraphPad Prism ver. 2.0.
(SPA uses beads or plates that emit light when radiolabelled molecules are held near them.)
Turning to `CC1CCn2c3c(c4cccc1c42)CCNCC3` (single isomer, unassigned; (+)) [Example 12, (+)-4-methyl-5,6,9,10,11,12-hexahydro-4H,8H-azepino[4′,5′:4,5]pyrrolo[3,2,1-ij]quinoline hydrochloride], the Ki came to 41 nM.
Same read-out and setting: for `CC1CCn2c3c(c4cccc1c42)CCNCC3` (single isomer, unassigned; (-)) [Example 13, (−)-4-methyl-5,6,9,10,11,12-hexahydro-4H,8H-azepino[4′,5′:4,5]pyrrolo[3,2,1-ij]quinoline hydrochloride] the value was 45 nM; for `COc1ccc2c3c1c1c(n3CCC2)CCNCC1` [Example 3, 1-methoxy-5,6,9,10,11,12-hexahydro-4H,8H-azepino[4′,5′:4,5]pyrrolo[3,2,1-ij]quinoline hydrochloride], 27 nM.
As to `CC1CCn2c3c(c4cccc1c42)CCNCC3` (stereo not drawn) [Example 7, 4-methyl-5,6,9,10,11,12-hexahydro-4H,8H-azepino[4′,5′:4,5]pyrrolo[3,2,1-ij]quinoline hydrochloride], affinity was put at a Ki of 77 nM.
`c1cc2c3c(c1)c1c(n3CC2)CCNCC1` [Example 14, 4,5,8,9,10,11-hexahydro-7H-azepino[4,5-b]pyrrolo[3,2,1-hi]indole hydrochloride] displayed a Ki of 28 nM.
On the same count and under the same terms, next, `Fc1cc2c3c(c1)c1c(n3CC2)CCNCC1` [Example 15, 2-fluoro-4,5,8,9,10,11-hexahydro-7H-azepino[4,5-b]pyrrolo[3,2,1-hi]indole hydrochloride]: 24 nM; `COc1cc2c3c(c1)c1c(n3CC2)CCNCC1` [Example 16, 2-methoxy-4,5,8,9,10,11-hexahydro-7H-azepino[4,5-b]pyrrolo[3,2,1-hi]indole hydrochloride]: 361 nM; `CC1Cc2cccc3c4c(n1c23)CCNCC4` (stereo not drawn) [Example 17, 5-methyl-4,5,8,9,10,11-hexahydro-7H-azepino[4,5-b]pyrrolo[3,2,1-hi]indole hydrochloride]: 65 nM.
On the same count and under the same terms, for `Cc1cc2c3c(c1)c1c(n3CCO2)CCNCC1` [Example 24, 5-methyl-1,2,8,9,10,11-hexahydro-7H-azepino[4,5-b][1,4]oxazino[2,3,4-hi]indole hydrochloride] the value was 29 nM.

The same assay, now with this note: membranes of HEK293-h5-HT2C-5 cells; [3H]serotonin final 4 nM; IC50 converted by Cheng-Prusoff, Kd 7 nM; read-out: Receptor binding 5HT2c Ki.
As to `CC1CCc2cccc3c4c(n1c23)CCNCC4` (single isomer, unassigned; (+)) [Example 8, (+)-6-methyl-5,6,9,10,11,12-hexahydro-4H,8H-azepino[4′,5′:4,5]pyrrolo[3,2,1-ij]quinoline hydrochloride], the Ki stood at 51 nM.
Regarding `CC1Cc2cccc3c4c(n(c23)C1)CCNCC4` (single isomer, unassigned; (+)) [Example 10, (+)-5-methyl-5,6,9,10,11,12-hexahydro-4H,8H-azepino[4′,5′:4,5]pyrrolo[3,2,1-ij]quinoline hydrochloride], the Ki turned out to be 70 nM.
As for `CC1CCc2cccc3c4c(n1c23)CCNCC4` (single isomer, unassigned; (-)) [Example 9, (−)-6-methyl-5,6,9,10,11,12-hexahydro-4H,8H-azepino[4′,5′:4,5]pyrrolo[3,2,1-ij]quinoline hydrochloride], the Ki came to 26 nM.
As to `CC1Cc2cccc3c4c(n(c23)C1)CCNCC4` (single isomer, unassigned; (-)) [Example 11, (−)-5-methyl-5,6,9,10,11,12-hexahydro-4H,8H-azepino[4′,5′:4,5]pyrrolo[3,2,1-ij]quinoline hydrochloride], the Ki turned out to be 96 nM.
For `c1cc2c3c(c1)c1c(n3CCC2)CCNCC1` [Example 1, 5,6,9,10,11,12-hexahydro-4H,8H-azepino[4′,5′:4,5]pyrrolo[3,2,1-ij]quinoline hydrochloride], the Ki is 13 nM.
The same measure, in the same setting: for `Cc1cc2c3c(c1)c1c(n3CCC2)CCNCC1` [Example 2, 2-methyl-5,6,9,10,11,12-hexahydro-4H,8H-azepino[4′,5′:4,5]pyrrolo[3,2,1-ij]quinoline hydrochloride] the value was 80 nM; for `Fc1cc2c3c(c1)c1c(n3CCC2)CCNCC1` [Example 4, 2-fluoro-5,6,9,10,11,12-hexahydro-4H,8H-azepino[4′,5′:4,5]pyrrolo[3,2,1-ij]quinoline hydrochloride], 83 nM.
The same measure, in the same setting: next, `CC1CCc2cccc3c4c(n1c23)CCNCC4` (stereo not drawn) [Example 5, 6-methyl-5,6,9,10,11,12-hexahydro-4H,8H-azepino[4′,5′:4,5]pyrrolo[3,2,1-ij]quinoline hydrochloride]: 33 nM; `CC1Cc2cccc3c4c(n(c23)C1)CCNCC4` (stereo not drawn) [Example 6, 5-methyl-5,6,9,10,11,12-hexahydro-4H,8H-azepino[4′,5′:4,5]pyrrolo[3,2,1-ij]quinoline hydrochloride]: 44 nM; `CC1c2cccc3c4c(n(c23)C1C)CCNCC4` (stereo not drawn) [Example 18, 4,5-dimethyl-4,5,8,9,10,11-hexahydro-7H-azepino[4,5-b]pyrrolo[3,2,1-hi]indole hydrochloride]: 52 nM.
Still for that read-out and setting: for `c1cc2c3c(c1)c1c(n3C3CCCCC23)CCNCC1` (stereo not drawn) [Example 19, 2,3,4,5,8b,9,10,11,12,12a-decahydro-1H-azepino[4′,5′:4,5]pyrrolo[3,2,1-jk]carbazole hydrochloride] the value was 144 nM.
Consider `Cc1ccc2c3c1c1c(n3CCO2)CCNCC1` [Example 20, 6-methyl-1,2,8,9,10,11-hexahydro-7H-azepino[4,5-b][1,4]oxazino[2,3,4-hi]indole hydrochloride], for which the Ki is 3.8 nM.
Same read-out and setting: next, `c1cc2c3c(c1)c1c(n3CCO2)CCNCC1` [Example 21, 1,2,8,9,10,11-hexahydro-7H-azepino[4,5-b][1,4]oxazino[2,3,4-hi]indole hydrochloride]: 16 nM; `Clc1ccc2c3c1c1c(n3CCO2)CCNCC1` [Example 22, 6-chloro-1,2,8,9,10,11-hexahydro-7H-azepino[4,5-b][1,4]oxazino[2,3,4-hi]indole hydrochloride]: 2.3 nM.
The same measure, in the same setting: for `Fc1cc2c3c(c1)c1c(n3CCO2)CCNCC1` [Example 23, 5-fluoro-1,2,8,9,10,11-hexahydro-7H-azepino[4,5-b][1,4]oxazino[2,3,4-hi]indole hydrochloride] the value was 13 nM; for `Fc1ccc2c3c1c1c(n3CCO2)CCNCC1` [Example 25, 6-fluoro-1,2,8,9,10,11-hexahydro-7H-azepino[4,5-b][1,4]oxazino[2,3,4-hi]indole hydrochloride], 8 nM.
On the same count and under the same terms, for `CC1Cn2c3c(c4cccc(c42)O1)CCNCC3` (stereo not drawn) [Example 26, 2-methyl-1,2,8,9,10,11-hexahydro-7H-azepino[4,5-b][1,4]oxazino[2,3,4-hi]indole hydrochloride] the value was 29 nM.
With `c1cc2c3c(c1)c1c(n3CCS2)CCNCC1` [Example 27, 1,2,8,9,10,11-hexahydro-7H-azepino[4,5-b][1,4]thiazino[2,3,4-hi]indole hydrochloride], the inhibition constant Ki was 5.1 nM.

A word on the Ki: it is the dissociation constant of the complex between target and ligand, obtained from inhibition or displacement.
